# Tested on: T-47D spheroids with HUVEC/MSC, viability
# Assay: Anticancer human tumor T-47D cell line growth inhibition [PI3K];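 further: spheroids exposed to agents for seven days before reading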;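 on viability, T/C: percent of DMSO vehicle control luminescence so 100% = untreated growth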
# Conditions: for viability, T/C: stronger effect = lower value
# How it was run: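 Stroma-containing spheroids: tumor line, pooled-donor HUVEC, hMSC. Treatments: targeted agents with PI3K inhibitors. Dosing: clinically relevant, half-log spacing, 10 microM ceiling without known Cmax. Read-out: cell viability.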
# [1] = curve of first compound, second compound 0.0316 µM
# [2] = curve of first compound, second compound 0.1 µM
# [3] = curve of first compound, second compound 0.316 µM
# [4] = curve of first compound, second compound 1 µM
# [5] = second compound 0.0316 µM, first compound 0.0316 µM
# [6] = second compound 0.0316 µM, first compound 0.1 µM
# [7] = second compound 0.1 µM, first compound 0.0316 µM
# [8] = second compound 0.1 µM, first compound 0.1 µM
# [9] = second compound 0.316 µM, first compound 0.0316 µM
# [10] = second compound 0.316 µM, first compound 0.1 µM
# [11] = second compound 1 µM, first compound 0.0316 µM
# [12] = second compound 1 µM, first compound 0.1 µM
smiles,measurement,setting,value
Cn1ncnc1[C@H]1c2n[nH]c(=O)c3cc(F)cc(c23)N[C@@H]1c1ccc(F)cc1 + COc1c(OCCCN2CCOCC2)ccc2c3n(c(=NC(=O)c4cnc(N)nc4)nc12)CCN3,IC50,"curve of first compound, second compound 0.00316 µM",> 100 nM
same,IC50,"curve of first compound, second compound 0.01 µM",> 100 nM
same,IC50,[1],> 100 nM
same,IC50,[2],< 0.316 nM
same,IC50,[3],< 0.316 nM
same,IC50,[4],< 0.316 nM
same,"viability, T/C","second compound 0.00316 µM, first compound 0.000316 µM",102%
same,"viability, T/C","second compound 0.00316 µM, first compound 0.001 µM",87.4%
same,"viability, T/C","second compound 0.00316 µM, first compound 0.00316 µM",112%
same,"viability, T/C","second compound 0.00316 µM, first compound 0.01 µM",104%
same,"viability, T/C","second compound 0.00316 µM, first compound 0.0316 µM",109%
same,"viability, T/C","second compound 0.00316 µM, first compound 0.1 µM",101%
same,"viability, T/C","second compound 0.01 µM, first compound 0.000316 µM",114%
same,"viability, T/C","second compound 0.01 µM, first compound 0.001 µM",83.9%
same,"viability, T/C","second compound 0.01 µM, first compound 0.00316 µM",93.7%
same,"viability, T/C","second compound 0.01 µM, first compound 0.01 µM",79.3%
same,"viability, T/C","second compound 0.01 µM, first compound 0.0316 µM",99.5%
same,"viability, T/C","second compound 0.01 µM, first compound 0.1 µM",94.1%
same,"viability, T/C","second compound 0.0316 µM, first compound 0.000316 µM",72.9%
same,"viability, T/C","second compound 0.0316 µM, first compound 0.001 µM",72.8%
same,"viability, T/C","second compound 0.0316 µM, first compound 0.00316 µM",85%
same,"viability, T/C","second compound 0.0316 µM, first compound 0.01 µM",71.4%
same,"viability, T/C",[5],75.1%
same,"viability, T/C",[6],64.8%
same,"viability, T/C","second compound 0.1 µM, first compound 0.000316 µM",40.9%
same,"viability, T/C","second compound 0.1 µM, first compound 0.001 µM",47.6%
same,"viability, T/C","second compound 0.1 µM, first compound 0.00316 µM",41.2%
same,"viability, T/C","second compound 0.1 µM, first compound 0.01 µM",34.1%
same,"viability, T/C",[7],40.7%
same,"viability, T/C",[8],39%
same,"viability, T/C","second compound 0.316 µM, first compound 0.000316 µM",18.9%
same,"viability, T/C","second compound 0.316 µM, first compound 0.001 µM",20.8%
same,"viability, T/C","second compound 0.316 µM, first compound 0.00316 µM",15.2%
same,"viability, T/C","second compound 0.316 µM, first compound 0.01 µM",17.1%
same,"viability, T/C",[9],14.8%
same,"viability, T/C",[10],15.1%
same,"viability, T/C","second compound 1 µM, first compound 0.000316 µM",5.24%
same,"viability, T/C","second compound 1 µM, first compound 0.001 µM",6.61%
same,"viability, T/C","second compound 1 µM, first compound 0.00316 µM",7.38%
same,"viability, T/C","second compound 1 µM, first compound 0.01 µM",7.19%
same,"viability, T/C",[11],5.03%
same,"viability, T/C",[12],6.71%
CC(=O)c1c(C)c2cnc(Nc3ccc(N4CCNCC4)cn3)nc2n(C2CCCC2)c1=O,"viability, T/C",compound 0.000316 µM,94.9% [middle of 4 runs]
same,"viability, T/C",compound 0.001 µM,98% [middle of 4 runs]
same,"viability, T/C",compound 0.0316 µM,96.2% [middle of 4 runs]
same,"viability, T/C",compound 0.1 µM,86.7% [middle of 4 runs]
same,IC50,curve of compound,> 100 nM
CC(C)NCC(C(=O)N1CCN(c2ncnc3c2C(C)CC3O)CC1)c1ccc(Cl)cc1 (centres undefined) + CC(Nc1ncnc2nc[nH]c12)c1cc2cccc(Cl)c2c(=O)n1-c1ccccc1,IC50,[1],> 10000 nM
same,IC50,[2],> 10000 nM
same,IC50,[3],> 10000 nM
same,IC50,[4],> 10000 nM
same,IC50,"curve of first compound, second compound 3.16 µM",> 10000 nM
same,IC50,"curve of first compound, second compound 10 µM",> 10000 nM
same,"viability, T/C",[5],107%
same,"viability, T/C",[6],73.4%
same,"viability, T/C","second compound 0.0316 µM, first compound 0.316 µM",91.6%
same,"viability, T/C","second compound 0.0316 µM, first compound 1 µM",81.4%
same,"viability, T/C","second compound 0.0316 µM, first compound 3.16 µM",59.9%
same,"viability, T/C","second compound 0.0316 µM, first compound 10 µM",57.2%
same,"viability, T/C",[7],111%
same,"viability, T/C",[8],75.5%
same,"viability, T/C","second compound 0.1 µM, first compound 0.316 µM",88.5%
same,"viability, T/C","second compound 0.1 µM, first compound 1 µM",66.2%
same,"viability, T/C","second compound 0.1 µM, first compound 3.16 µM",60.2%
same,"viability, T/C","second compound 0.1 µM, first compound 10 µM",63.6%
same,"viability, T/C",[9],98.3%
same,"viability, T/C",[10],78.6%
same,"viability, T/C","second compound 0.316 µM, first compound 0.316 µM",77.4%
same,"viability, T/C","second compound 0.316 µM, first compound 1 µM",65.9%
same,"viability, T/C","second compound 0.316 µM, first compound 3.16 µM",65.2%
same,"viability, T/C","second compound 0.316 µM, first compound 10 µM",62.2%
same,"viability, T/C",[11],79.8%
same,"viability, T/C",[12],104%
same,"viability, T/C","second compound 1 µM, first compound 0.316 µM",90.1%
same,"viability, T/C","second compound 1 µM, first compound 1 µM",63.4%
same,"viability, T/C","second compound 1 µM, first compound 3.16 µM",61.9%
same,"viability, T/C","second compound 1 µM, first compound 10 µM",60.4%
same,"viability, T/C","second compound 3.16 µM, first compound 0.0316 µM",98.7%
same,"viability, T/C","second compound 3.16 µM, first compound 0.1 µM",84.4%
same,"viability, T/C","second compound 3.16 µM, first compound 0.316 µM",81.7%
same,"viability, T/C","second compound 3.16 µM, first compound 1 µM",87.5%
same,"viability, T/C","second compound 3.16 µM, first compound 3.16 µM",55.3%
same,"viability, T/C","second compound 3.16 µM, first compound 10 µM",62.9%
same,"viability, T/C","second compound 10 µM, first compound 0.0316 µM",93.5%
same,"viability, T/C","second compound 10 µM, first compound 0.1 µM",93.1%
same,"viability, T/C","second compound 10 µM, first compound 0.316 µM",87.3%
same,"viability, T/C","second compound 10 µM, first compound 1 µM",74%
same,"viability, T/C","second compound 10 µM, first compound 3.16 µM",67.3%
same,"viability, T/C","second compound 10 µM, first compound 10 µM",57.9%

# Reference: PubChem BioAssay AID1963959 (Molecular Pharmacology Branch, DTP, NCI, 2024)
